For one assay, the system named is THP-1 cells. Nature of the assay: THP-1 cell growth in presence of ZA lipid coated stents or molecular ZA (Examples 6 and 7). The class given is cell-based. To be noted: Homo sapiens, THP-1, 96 h, 4 days of culture. The procedure: To monitor cell growth in the presence of liposomes containing ZA, 5×10^5 THP-1 cells are plated into 24—well cluster plates (Corning Inc.) in complete RPMI-1640 medium at 1 mL volume. About 3-4 hours later, the lipid coated stents of Example 5 are added into the THP-1 cell culture (5×10^5 cells/mL). The cells in the presence of medium alone or treated with empty liposomes (no drug) served as a control. ZA in molecular form was added for comparison at a concentration of 5 and 1 μg/mL. After 4 days of culture, the cells in each culture were harvested and counted using a hemocytometer; viability was evaluated by trypan blue exclusion method.
The two sets of samples were placed in cell cultures containing THP-1 macrophage type cells. HAp coated stents impregnated with molecular ZA (configuration B) are placed in 2 ml PBS dissolution media and rotated at a speed of 20 rpm at 37.2° C. Samples are taken at various time intervals and analyzed using HPLC.

The test system of assay [1] is THP-1 (Human Monocytic Leukemia) cell culture. Nature of the assay: THP-1 cell growth inhibition by ZA released from lipid bilayer stent coating (Example 16). The class given is cell-based. To be noted: THP-1, 96 h, 4 days. The procedure: Hydroxyapatite coated stents were further coated with the lipid film in a manner similar to that described in Examples 12 and 13, except that the film contained 2 μg of zoledronic acid (ZA). The stents were added to THP-1 (Human Monocytic Leukemia) cell culture (5×10^5 cells/mL) and compared to ZA alone added at concentration of 5 and 1 μg/mL. After 4 days, the cells in each culture were harvested and counted.

A word on the inhibition: it is how much of the control response was suppressed.

In the case of `O=P(O)(O)C(O)(Cn1ccnc1)P(=O)(O)O` [ZA, zoledronic acid], the inhibition at 1 µg/mL (with THP-1 cells (1 μg/mL); in assay [1] (1 μg/mL)) was 0.6% throughout. In addition, the inhibition at 5 µg/mL (in the assay on THP-1 cells (5 μg/mL); in assay [1] (5 μg/mL)) was 20% each time.

For the origin of these results see patent publication US20080181928A1, “COATINGS FOR IMPLANTABLE MEDICAL DEVICES FOR LIPOSOME DELIVERY” (MIV Therapeutics, Inc., priority 2006, published 2008).
